Reference: patent US8058309B2, “Protein kinase modulators and therapeutic uses thereof” (Novotyr Therapeutics Ltd., priority 2006, dated 2011)

Key:
[1] = Body weight of treated nude mice; assay type: in vivo; details: IP, 1/day, 50 mg/kg, over 4 weeks
Procedure: (§1) Human hormone-refractory prostate cancer PC3 cells (ATCC, 1.5×10^6 cells per mouse) were injected subcutaneously into the right leg of Nude:Hsd mice (purchased from Harlan). Ten days later, when palpable tumors had developed, mice were divided into 3 groups with similar average tumor size. […] The mice treated with compound 7 group were daily injected with compound 7 dissolved in the below described vehicle, and the vehicle-treated group (veh) was daily injected by the vehicle alone. Vehicle included 4.4% DMSO, 1.2% Ethanol and 50% PEG400 in DDW; Groups were composed of 3 mice per group. Dose administered IP was 50 mg/Kg (4 ml/Kg) once a day for one month. The length (l) and the width (w) of the tumors were measured every day and the volumes of the tumors were calculated as follows: v=1w^2/2. Graphs present average volumes of the tumors versus time in days. The procedure was followed for the other described in-vivo studies with the following modifications: […]

Panc1 tumors = experiment: Pancreatic cancer Panc1 xenograft tumor growth; assay type: in vivo, nude mice; details: intratumoral, 1/day, 125 μg/day
Procedure: (§2) Human hormone-refractory prostate cancer PC3 cells (ATCC, 1.5×10^6 cells per mouse) were injected subcutaneously into the right leg of Nude:Hsd mice (purchased from Harlan). Ten days later, when palpable tumors had developed, mice were divided into 3 groups with similar average tumor size. […] The mice treated with compound 7 group were daily injected with compound 7 dissolved in the below described vehicle, and the vehicle-treated group (veh) was daily injected by the vehicle alone. Vehicle included 4.4% DMSO, 1.2% Ethanol and 50% PEG400 in DDW; Groups were composed of 3 mice per group. Dose administered IP was 50 mg/Kg (4 ml/Kg) once a day for one month. The length (l) and the width (w) of the tumors were measured every day and the volumes of the tumors were calculated as follows: v=1w^2/2. Graphs present average volumes of the tumors versus time in days. The procedure was followed for the other described in-vivo studies with the following modifications:
Human pancreatic cancer Pancl cells (2×10^6 cells per mouse) were injected subcutaneously into the right leg of male Nude:Hsd mice (purchased from Harlan). Compound 7 was injected intratumorally (IT) daily at doses of 125 μg/mouse in 0.06% DMSO and 2.16% PEG400 in saline.

MEK = MEK activity in cells (ERK phosphorylation); assay type: cell-based
Procedure: (§3) Tyrosine autophosphorylation of the β-subunit of IGF1R as well as downstream signaling induced by IGF1R were assayed in breast cancer MCF7 cells. Tyrosine autophosphorylation of the EGFR and the EGFR signaling was assayed in prostate cancer PC3 cells. Tyrosine autophosphorylation of the PDGFR and its signaling was assayed in fibroblasts overexpres sing PDGFR. Tyro sine autophosphorylation of the IR and its signaling was assayed in fibroblasts overexpressing IR. Cells were seeded in 6-well plates (MCF7-250,000 cells/well, PC3-150,000 cells/well, fibroblasts-140,000 cells/well) and 24 hours later medium was replaced by serum-free medium (DMEM supplemented with 100 units/ml penicillin and 100 μg/ml streptomycin). Following 20 hours of serum-starvation medium was replaced with medium containing various concentrations of the inhibitors in 0.1% DMSO for additional 4 hours. Cells were then stimulated for 5 min with 50 ng/ml IGF-1 (MCF7 cells), 20 ng/ml EGF (PC3 cells), 50 ng/ml PDGF (fibroblasts overexpressing PDGFR) or 100 nM insulin (fibroblasts overexpressing IR), washed twice with PBS and lysed by boiling sample buffer (10% glycerol, 50 mM Tris-HCl, pH 6.8, 3% SDS, and 5%, β-mercaptoethanol). Equal amounts of protein per lane were separated by 8% SDS-PAGE and transferred to a nitrocellulose membrane (Sartorius AG). […]

PDK = target: T1, PDK (Homo sapiens, UniProt O15530); experiment: PDK activity in cells (PKB Thr308 phosphorylation); assay type: cell-based
T1 construct: endogenous in cells
T1 sequence (O15530 whole entry): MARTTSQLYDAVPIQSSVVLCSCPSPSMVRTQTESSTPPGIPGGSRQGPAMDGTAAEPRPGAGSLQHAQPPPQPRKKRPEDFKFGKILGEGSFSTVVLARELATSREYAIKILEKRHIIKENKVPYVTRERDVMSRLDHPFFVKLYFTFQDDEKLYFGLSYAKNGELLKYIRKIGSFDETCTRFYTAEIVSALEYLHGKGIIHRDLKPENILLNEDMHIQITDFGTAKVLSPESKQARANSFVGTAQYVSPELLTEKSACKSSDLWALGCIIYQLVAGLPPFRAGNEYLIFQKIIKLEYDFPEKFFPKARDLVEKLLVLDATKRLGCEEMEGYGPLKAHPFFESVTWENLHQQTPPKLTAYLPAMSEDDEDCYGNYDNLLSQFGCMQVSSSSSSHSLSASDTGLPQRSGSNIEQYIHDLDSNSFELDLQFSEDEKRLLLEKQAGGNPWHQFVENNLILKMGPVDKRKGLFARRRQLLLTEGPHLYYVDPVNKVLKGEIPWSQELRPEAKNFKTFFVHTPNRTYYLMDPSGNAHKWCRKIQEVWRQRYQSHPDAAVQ
Procedure: as §3

IR = target: T2, IR (Homo sapiens, UniProt P06213); experiment: Insulin receptor activation and signaling in fibroblasts overexpressing IR; assay type: cell-based; details: fibroblasts over-expressing IR, insulin stimulation
T2 construct: expressed in transfected cells; host or cells: NIH3T3 fibroblasts over expressing IR
T2 sequence (P06213 28-1382): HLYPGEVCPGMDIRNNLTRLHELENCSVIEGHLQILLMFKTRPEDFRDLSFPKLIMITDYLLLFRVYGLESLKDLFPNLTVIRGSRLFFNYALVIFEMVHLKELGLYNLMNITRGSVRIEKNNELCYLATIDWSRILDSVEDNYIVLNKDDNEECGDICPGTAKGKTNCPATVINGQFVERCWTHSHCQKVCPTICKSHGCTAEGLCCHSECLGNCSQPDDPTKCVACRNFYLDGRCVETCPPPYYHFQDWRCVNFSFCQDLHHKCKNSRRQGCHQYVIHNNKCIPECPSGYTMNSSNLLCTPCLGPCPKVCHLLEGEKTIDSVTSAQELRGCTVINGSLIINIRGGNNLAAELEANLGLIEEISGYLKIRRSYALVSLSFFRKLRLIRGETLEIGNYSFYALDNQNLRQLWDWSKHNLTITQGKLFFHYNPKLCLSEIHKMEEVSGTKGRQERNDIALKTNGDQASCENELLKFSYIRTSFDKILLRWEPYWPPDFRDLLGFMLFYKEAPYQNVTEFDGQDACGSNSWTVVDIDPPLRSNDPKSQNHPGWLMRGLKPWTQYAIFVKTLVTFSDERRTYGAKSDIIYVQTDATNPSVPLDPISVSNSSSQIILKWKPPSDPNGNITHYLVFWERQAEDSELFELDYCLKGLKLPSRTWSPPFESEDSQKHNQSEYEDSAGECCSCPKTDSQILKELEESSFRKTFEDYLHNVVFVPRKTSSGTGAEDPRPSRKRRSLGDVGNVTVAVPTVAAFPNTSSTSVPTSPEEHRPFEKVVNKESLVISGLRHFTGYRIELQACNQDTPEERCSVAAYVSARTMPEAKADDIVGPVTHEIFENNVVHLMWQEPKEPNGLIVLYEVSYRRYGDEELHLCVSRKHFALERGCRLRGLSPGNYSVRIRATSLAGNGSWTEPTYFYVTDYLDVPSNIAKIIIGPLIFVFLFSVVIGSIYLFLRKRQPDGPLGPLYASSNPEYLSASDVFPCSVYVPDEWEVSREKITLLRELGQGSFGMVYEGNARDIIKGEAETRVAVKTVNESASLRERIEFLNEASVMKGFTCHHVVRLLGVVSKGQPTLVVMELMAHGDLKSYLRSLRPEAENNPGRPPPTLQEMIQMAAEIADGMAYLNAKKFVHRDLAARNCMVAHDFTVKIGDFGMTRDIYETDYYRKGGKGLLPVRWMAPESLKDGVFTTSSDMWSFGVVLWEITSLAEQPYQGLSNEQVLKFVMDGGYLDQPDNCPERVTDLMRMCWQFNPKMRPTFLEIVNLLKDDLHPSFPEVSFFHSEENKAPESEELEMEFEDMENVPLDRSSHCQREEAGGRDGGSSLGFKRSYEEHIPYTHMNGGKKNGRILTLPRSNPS
Procedure: as §3

PC3 tumors = experiment: Hormone-refractory prostate cancer PC3 xenograft tumor growth; assay type: in vivo, nude mice
Procedure: as §1

YUMAC tumors = experiment: Human melanoma YUMAC xenograft tumor growth; assay type: in vivo, nude mice; details: IP, 20 mg/kg, 1/day
Procedure: as §2
The human YUMAC metastatic melanoma cells (2×10^6 cells per mouse), provided by Dr. Ruth Halaban (Yale University), were injected subcutaneously into the right leg of male Nude:Hsd mice (purchased from Harlan). Inhibitors were injected IP daily at a dose of 20 mg/kg dissolved in 8% EtOH, 2% Tween-80, 20% PEG-400 and 20% solutol in DDW at volume of 4 ml/kg.

Compound	Effect on body weight of the mice [1]	Growth inhibition of pancreatic cancer Panc1 tumors (Panc1 tumors) [%]	Inhibition of MEK (phosphorylation of ERK) (MEK)	Inhibition of PDK (phosphorylation of PKB Thr308) (PDK)	Inhibition of IR in intact cells (IR)	Growth inhibition of HRPC PC3 tumors (PC3 tumors; IP, 1/day, 50 mg/kg, one month, vs vehicle treated and untreated) [%]	Efficacy on HRPC model by intratumoral administration (PC3 tumors; intratumoral administration)	Growth inhibition of human melanoma YUMAC tumors (YUMAC tumors)
N#C/C(=C\c1cc(O)c(O)c(Br)c1)C(=S)NCc1cc(O)c(O)c(O)c1 [Compound 7]	no significant effect	50	not inhibited	not inhibited	inhibits	82	efficient	
N#C/C(=C\c1cc(O)c(O)c(I)c1)C(=S)NCc1cc(O)c(O)c(O)c1 [Compound 8]								inhibition
